The values below come from patent publication US20090054368A1, “Substituted gemini surfactant compounds” (University of Saskatchewan, priority 2007, published 2009).

Entries after “also recorded” stand apart in the source; their conditions may differ.

For series [1] the following is noted: from reference [24]; cited from earlier work.
A short description of series [2]: Size (hydrodynamic radius) and zeta potential as a function of pH. In kind it is physicochemical. As to conditions: PGL complexes. As for the experimental part:
Determinations of size (hydrodynamic radius, RH) and zeta potential (ζ) as a function of pH were carried out using a Malvern Instruments (Worcestershire, UK) ZetaSizer NanoZs with MPT-2 auto-titrator attachment. 10 mL of the desired sample was placed in the titration cell of the auto-titrator and samples were titrated (in 0.2-0.5 pH unit increments) with 0.1 M NaOH and 0.1 M HCl over the desired pH range. Size and zeta potential measurement were made in triplicate at each pH point, and the reported values represent the average±standard error. pH titrations of aqueous gemini surfactant solutions were made at a surfactant concentration of 2.00 mM, above the critical micelle concentration in all cases.
(§1) Solutions for size, zeta potential, and circular dichrosicm (CD) measurements were prepared, in larger volumes, as described above for the transfection experiments using a pGTmCMV.IFN-GFP plasmid DNA, previously constructed in our lab. Solutions containing only surfactant and plasmid DNA were prepared by addition of an aliquot of stock plasmid DNA to the gemini surfactant solution to a charge ratio of 1:10 (DNA:surfactant).

The next series concerns plasmid DNA. Put plainly: Circular dichroism of plasmid DNA-gemini surfactant complexes. In kind it is physicochemical. Conditions: with or without DOPE. As for the experimental part: CD spectra were obtained by using an Applied Photo Physics π*180 instrument (Leatherhead, UK) with a 4 nm slit, at room temperature.
as §1
On the technique in general: Circular dichroism is the unequal absorption of left and right circularly polarised light.

For series [3], the system named is COS-7 African Green monkey kidney fibroblast cells. Briefly: Transfection assay (luciferase production after transfection with plasmid DNA-gemini surfactant complexes). In kind it is cell-based. Conditions: PG complexes, complexed with DNA in the absence of helper lipid (DOPE).
The subject of another series is cultured cells. Briefly: Viability of cells following transfection. In kind it is cell-based. The method, then: Ideal transfection reagents are minimally toxic and/or disruptive to cells. Accordingly, the N-substituted surfactants were tested for toxicity in cultured cells. The viability of cells following transfection with either plasmid DNA-gemini surfactant-DOPE or Lipofectamine Plus are shown in FIG. 3. The aza-substituted surfactants 12-5N-12, 12-8N-12, and 12-7N-12 had similar toxicity compared to the Lipofectamine Plus reagent, with cell viability around 80% of the controls (i.e., no treatment or plasmid DNA alone; p>0.05).

The nature of series [4]: Small angle X-ray scattering (SAXS) of plasmid DNA-gemini surfactant-DOPE complexes. As to conditions: plasmid DNA-gemini surfactant-DOPE complexes. In kind it is physicochemical. As for the experimental part: SAXS measurements were carried out at beamline X21 at the National Synchrotron Light Source at Brookhaven National Laboratory. Beamline X21 is based on a wiggler source, with a helium gas-cooled Si(111) monochromator selecting the photon energy. The X-ray beam is focused by a toroidal mirror into the experimental station. Three pairs of precision slits, positioned at 4 m, 1 m, and 5 cm upstream of the sample, define the beam. The scattering pattern is recorded using a 13 cm Mar CCD detector (Mar USA, Evanston, Ill.) located 1.26 m (calibrated with the scattering pattern of silver behenate) downstream of the sample. The measurements were performed with 12 KeV x-rays and the data covered a q-range from 0.008 Å^−1 to 0.375 Å^−1. All beam paths are under vacuum, except at the sample position, where the sample is in air, and kapton windows terminate the vacuum beam paths. Samples were loaded into 1.5 mm capillaries (Charles Supper #15-BG, Natick Mass.) and data recorded at room temperature. All spectra were processed to remove background contributions by subtracting the scattering profile obtained for a water-filled capillary. Peak fitting was carried out using the open-sources software package “fityk” (available at http://www.unipress.waw.pl/fityk/; last accessed on Jul. 5, 2007) using multiple Gaussian functions.
Solutions for SAXS analysis were prepared by addition of appropriate amounts of stock surfactant, DNA, and DOPE solutions, followed by sonication (to ensure complete mixing) where appropriate. The pGTmCMV.IFN-GFP plasmid DNA was used in the SAXS studies. The final concentrations of DNA and DOPE were 0.075 mM (50 μg/mL) and 1.00 mM (0.75 mg/mL), respectively. The concentration of gemini surfactant was adjusted as needed to obtain the desired 1:10 DNA:surfactant charge ratio. Preliminary x-ray scattering studies indicated these concentrations to be too dilute to give good scattering signals; as a result, the samples were concentrated 5× by evaporation.

In series [5] the test system is COS-7 African Green monkey kidney fibroblast cells. Put plainly: Transfection assay (luciferase production after transfection with plasmid DNA-gemini surfactant complexes). In kind it is cell-based. The method, then:
COS-7 African Green monkey kidney fibroblast cells (ATCC CRL1651) were prepared for transfection in antibiotic and 10% fetal bovine serum supplemented minimal Eagle's medium (MEM). The day before transfection, 5×10^4 cells/well were seeded in 24-well plates (Greiner Labortechnik GmbH, Germany). The supplemented MEM was changed to MEM one hour prior to transfection.
The pMASIA.Luc plasmid DNA was used at a concentration of 0.2 μg/well for transfection. The transfection mixtures were prepared as follows: 0.2 μg of plasmid DNA was mixed with aliquots of gemini surfactant solution to obtain a plasmid DNA:gemini surfactant charge ratio of 1:10 and incubated at room temperature for 15 minutes. To this mixture, 25 μL of DOPE liposomes were added. The transfection mixtures were incubated for 30 minutes at room temperature prior to transfection and added to the cells, dropwise. The plates were incubated for 5 hours at 37° C. in a CO2 incubator. Dc-Chol (30-[N—(N′,N′-Dimethylaminoethane)-carbamoyl]cholesterol) was used for comparison and, as a positive control, cells were also transfected with Lipofectamine Plus™ Reagent (Invitrogen Life Technologies, Carlsbad, Calif.), according to the manufacturer's protocol, with 0.2 μg of plasmid DNA per well.
Luciferase production was quantified using the Promega Steady-Glo™ luciferase assay system. Luminescence was monitored using a Turner Biosystems (Sunnyvale, Calif., USA) Reporter microplate luminometer. Statistical analysis was performed using ANOVA and Tukey's multiple comparison test. […] Equal variances were tested using Bartlett's test, and normality by the D'Agostino & Pearson omnibus normality test.

Series [6] in a line: Average membrane charge density calculation for plasmid DNA-gemini surfactant-DOPE nanoparticles. In kind it is physicochemical. Conditions: calculated from head group areas.

For `CCCCCCCCCCCC[N+](C)(C)CCCNCCC[N+](C)(C)CCCCCCCCCCCC.[Br-].[Br-]` [12-7NH-12, 1,9-bis(dodecyl)-1,1,9,9-tetramethyl-5-imino-1,9-nonanediammonium dibromide], in series [1], the “Head group area a0” value is 1.56 ± 0.04 nm^2/molecule. In series [2], the “pH of transition in particle size and zeta potential” value came out at 5.5. For the same molecule, the “DNA distortion from CD spectrum (in words)” value with plasmid DNA is listed as “greatest DNA distortion”. The “transfection efficiency (in words)” value in series [3] is “significantly higher level of transfection efficiency”; in series [5] (PGL complexes, with DOPE added), “enhanced transfection efficiency compared to the un-substituted surfactant, 12-3-12; also recorded: higher levels of transfection efficiency compared to the non-substituted gemini surfactant 12-3-12; also recorded: comparable to that of Lipofectamine Plus”. For the same molecule, the “cell viability / toxicity (in words)” value in the series on cultured cells (after transfection with plasmid DNA-gemini surfactant-DOPE) is “not statistically significantly different from that of the 12-5N-12 and 12-8N-12”. Besides, the cell viability entry with cultured cells (after transfection with plasmid DNA-gemini surfactant-DOPE or Lipofectamine Plus, relative to controls (no treatment or plasmid DNA alone)) is “about 70%”. Besides, the “d-spacing of main scattering peak” value in series [4] worked out at 59.4 Å. In series [5], the “increase in transfection compared to the corresponding aza-substituted compound” value stood at 3 fold. Moreover, the transfection efficiency in series [5] (PGL system (plasmid DNA-gemini surfactant-DOPE), charge ratio 1:10) is 6.7±0.5 ng luciferase/2×10^4 cells. Besides, the “increase in transfection compared to an un-substituted gemini surfactant” value in series [5] (p<0.01) stood at 9 fold. Also, the “membrane charge density σM” value in series [6] was 0.920 ×10^−2 e/Å^2.
